Measured values as given in patent US8883841B2, “Oncogenic ras-specific cytotoxic compound and methods of use thereof” (The Board of Regents of the University of Texas System, priority 2005, dated 2014).
Where two headings read alike, the source gives them in different places.

Experiments:
[1] = system: H1299 cells; assay: Cell viability, H1299 lung cancer cells; format: cell-based, human; details: for IC50: Homo sapiens
[2] = system: H460 cells; assay: cells; details: Homo sapiens
[3] = system: A549 cells; assay: Cell viability, A549 lung cancer cells; format: cell-based, human; details: A549, Lung
[4] = system: Ovca429; assay: Cell viability, Ovca429 ovary cancer cells; format: cell-based
[5] = system: Capanc-1; assay: Cell viability, Capanc-1 pancreatic cancer cells; format: cell-based, human; details: capanc1, Pancrease
[6] = system: Sw620; assay: Cell viability, Sw620 colon cancer cells; format: cell-based, human; details: for IC50: Homo sapiens
[7] = system: H2122; assay: Cell viability, H2122 lung cancer cells; format: cell-based, human; details: Homo sapiens
[8] = system: DLD1; assay: Cell viability, DLD1 colon cancer cells; format: cell-based, human; details: Homo sapiens
[9] = system: H322 cells; assay: Cell viability, H322 lung cancer cells; format: cell-based, human; details: Homo sapiens
[10] = system: H2087; assay: Cell viability, H2087 lung cancer cells; format: cell-based, human; details: Homo sapiens
[11] = system: H1395; assay: Cell viability, H1395 lung cancer cells; format: cell-based, human; details: Homo sapiens
[12] = system: Hct116; assay: Cell viability, Hct116 colon cancer cells; format: cell-based, human; details: for IC50: Homo sapiens
[13] = system: Ovcar3; assay: Cell viability, Ovcar3 ovary cancer cells; format: cell-based; details: Homo sapiens, OVCAR-3
[14] = system: H23; assay: Cell viability, H23 lung cancer cells; format: cell-based, human; details: Homo sapiens
[15] = system: H1933; assay: Cell viability, H1933 lung cancer cells; format: cell-based, human; details: Homo sapiens, read-out: IC50 (−LogM) (converted)
[16] = system: Heb46; assay: Cell viability, Heb46 kidney cells; format: cell-based
[17] = system: Ovcar443; assay: Cell viability, Ovcar443 ovary cancer cells; format: cell-based
[18] = system: A549CK8; assay: Cell viability, A549CK8 lung cancer cells; format: cell-based, human; details: Homo sapiens, read-out: IC50 (−LogM) (converted)
[19] = system: SKOV3; assay: Cell viability, SKOV3 ovary cancer cells; format: cell-based; details: Homo sapiens, SK-OV-3
[20] = system: Heb44; assay: Cell viability, Heb44 kidney cells; format: cell-based
[21] = system: HKE3; assay: Cell viability, HKE3 colon cancer cells; format: cell-based, human; details: HKE3, Colon; for IC50: Homo sapiens, read-out: IC50 (−LogM) (converted)
[22] = system: Hey; assay: Cell viability, Hey ovary cancer cells; format: cell-based
[23] = system: T29Kt1 cells; assay: cells; details: Homo sapiens, T29Kt1, read-out: IC50 in T29k cells, Table 1
[24] = system: miapac; assay: Cell viability, miapac pancreatic cancer cells; format: cell-based, human; details: Homo sapiens, Pancreatic cancer cell, read-out: IC50 (−LogM) (converted)
[25] = system: H2009; assay: Cell viability, H2009 lung cancer cells; format: cell-based, human; details: Homo sapiens
[26] = system: H226B cells; assay: Cell viability, H226B lung cancer cells; format: cell-based, human; details: for IC50: Homo sapiens; for IC50 (−LogM): listed as Onk29
[27] = system: CT116P53; assay: Cell viability, CT116P53 colon cancer cells; format: cell-based, human; details: Homo sapiens, read-out: IC50 (−LogM) (converted)
[28] = system: AsPC-1; assay: Cell viability, AsPC-1 pancreatic cancer cells; format: cell-based, human; details: for IC50: Homo sapiens
[29] = system: T29Kt1 cells; details: Table 1, value is the negative log10 of mol/L
[30] = NCI-H460, read-out: IC50 (−LogM), H460, Lung (converted)
[31] = NCI-H460, read-out: IC50 in H460 cells, Table 1

OCc1cn(Cc2ccccc2Cl)c2ccccc12 [Oncrasin K006, [1-(2-chlorobenzyl)-1H-indol-3-yl]methanol]
IC50 ([1]; NCI-H1299, h1299, Lung, read-out: IC50 (−LogM) (converted)): 10 µM
IC50 [2, 30]: 0.1 µM
IC50 [2, 31]: 0.1 µM
IC50 ([3]; Homo sapiens, read-out: IC50 (−LogM) (converted)): 12.6 µM
IC50 [4]: 10 µM
IC50 ([5]; Homo sapiens, Pancreatic cancer cell, read-out: IC50 (−LogM) (converted)): 12.6 µM
IC50 ([6]; SW-620, Sw620, Colon, read-out: IC50 (−LogM) (converted)): 10 µM
IC50 ([7]; NCI-H2122, H2122, Lung, read-out: IC50 (−LogM) (converted)): 3.98 µM
IC50 ([8]; DLD-1, DLD1, Colon, read-out: IC50 (−LogM) (converted)): < 31.6 µM
IC50 ([9]; NCI-H322, H322, Lung, read-out: IC50 (−LogM) (converted)): 31.6 µM
IC50 ([10]; NCI-H2087, H2087, Lung, read-out: IC50 (−LogM) (converted)): 25.1 µM
IC50 ([11]; NCI-H1395, H1395, Lung, read-out: IC50 (−LogM) (converted)): 31.6 µM
IC50 ([12]; HCT-116, Hct116, Colon, read-out: IC50 (−LogM) (converted)): 0.501 µM
IC50 [13]: 0.631 µM
IC50 ([14]; NCI-H23, H23, Lung, read-out: IC50 (−LogM) (converted)): 25.1 µM
IC50 ([15]; H1933, Lung): 15.8 µM
IC50 [16]: 2 µM
IC50 [17]: 7.94 µM
IC50 ([18]; A549CK8, Lung): 3.98 µM
IC50 [19]: 3.98 µM
IC50 [20]: 0.01 µM
IC50 ([21]; first HKE3 line): 0.126 µM
IC50 ([21]; second HKE3 line): 0.251 µM
IC50 [22]: 31.6 µM
IC50 [23]: 2.51 µM
IC50 ([24]; miapac, Pancrease): < 31.6 µM
IC50 ([25]; NCI-H2009, H2009, Lung, read-out: IC50 (−LogM) (converted)): 31.6 µM
IC50 ([26]; H226B, Lung, first H226B line, read-out: IC50 (−LogM) (converted)): 0.00251 µM
IC50 ([26]; H226B, Lung, second H226B line, read-out: IC50 (−LogM) (converted)): 0.0398 µM
IC50 ([27]; CT116P53, Colon): < 31.6 µM
IC50 ([28]; ASPC1, Pancrease, read-out: IC50 (−LogM) (converted)): 3.98 µM

O=Cc1cn(Cc2ccc(Br)cc2)c2ccccc12 [Oncrasin K029, 1-(4-bromobenzyl)-1H-indole-3-carbaldehyde]
IC50 ([1]; NCI-H1299, read-out: IC50 (−LogM), h1299, Lung (converted)): 12.6 µM
IC50 (−LogM) ([1]; h1299, Lung, listed as OnK29): 5.1 −LogM
IC50 [2, 30]: 0.00316 µM
IC50 [2, 31]: 0.00316 µM
IC50 (−LogM) ([3]; listed as OnK29): 5 −LogM
IC50 (−LogM) ([3]; listed as Onk29): >4.5 −LogM
IC50 [4]: 3.16 µM
IC50 (−LogM) ([5]; listed as OnK29): 5 −LogM
IC50 (−LogM) ([5]; listed as Onk29): 6 −LogM
IC50 ([6]; SW-620, read-out: IC50 (−LogM), Sw620, Colon (converted)): 31.6 µM
IC50 (−LogM) ([6]; Sw620, Colon, listed as OnK29): >4.5 −LogM
IC50 ([7]; NCI-H2122, read-out: IC50 (−LogM) (converted)): 2 µM
IC50 ([8]; DLD-1, read-out: IC50 (−LogM) (converted)): < 31.6 µM
IC50 ([9]; NCI-H322, read-out: IC50 (−LogM) (converted)): 31.6 µM
IC50 ([10]; NCI-H2087, read-out: IC50 (−LogM) (converted)): 31.6 µM
IC50 ([11]; NCI-H1395, read-out: IC50 (−LogM) (converted)): 31.6 µM
IC50 (−LogM) ([12]; Hct116, Colon, listed as OnK29): 5.5 −LogM
IC50 ([12]; HCT-116, read-out: IC50 (−LogM), Hct116, Colon (converted)): 2.51 µM
IC50 [13]: 5.01 µM
IC50 ([14]; NCI-H23, read-out: IC50 (−LogM) (converted)): 31.6 µM
IC50 [15]: 31.6 µM
IC50 (−LogM) ([16]; listed as OnK29): 5.6 −LogM
IC50 (−LogM) ([16]; listed as Onk29): 6.6 −LogM
IC50 [17]: 10 µM
IC50 [18]: 3.16 µM
IC50 [19]: 3.16 µM
IC50 (−LogM) ([20]; listed as OnK29): 7.2 −LogM
IC50 (−LogM) ([20]; listed as Onk29): 8.1 −LogM
IC50 (−LogM) ([21]; first HKE3 line, listed as OnK29): 6.6 −LogM
IC50 (−LogM) ([21]; first HKE3 line, listed as Onk29): 7 −LogM
IC50 (−LogM) ([21]; second HKE3 line, listed as OnK29): 5.8 −LogM
IC50 (−LogM) ([21]; second HKE3 line, listed as Onk29): 6.3 −LogM
IC50 in T29k cells ([29]; listed as K29): 6.6
IC50 in T29k cells [29]: 5
IC50 [22]: 31.6 µM
IC50 [24]: < 31.6 µM
IC50 ([25]; NCI-H2009, read-out: IC50 (−LogM) (converted)): < 31.6 µM
IC50 (−LogM) ([26]; H226B, Lung, first H226B line): 7.1 −LogM
IC50 (−LogM) ([26]; H226B, Lung, second H226B line): 5.5 −LogM
IC50 ([26]; read-out: IC50 (−LogM), H226B, Lung, first H226B line (converted)): 0.126 µM
IC50 ([26]; read-out: IC50 (−LogM), H226B, Lung, second H226B line (converted)): 5.01 µM
IC50 [27]: < 31.6 µM
IC50 (−LogM) ([28]; ASPC1, Pancrease, listed as OnK29): 5.3 −LogM
IC50 ([28]; ASPC1, read-out: IC50 (−LogM), ASPC1, Pancrease (converted)): 3.98 µM
